“Also recorded” adds a separate entry of the source.
What was measured:
Dopamine D-2 Receptors = details: Table II, known dopamine D-2 receptor ligands; cited from earlier work
[1] = target: T1, dopamine D2 receptor (Rat Striatal Membranes) (Rattus norvegicus, UniProt P61169); experiment: Competition for ^125 I-FIDA-2 binding to rat striatal membranes
T1 construct: Rat tissue homogenates were prepared as described previously; from tissue; host or cells: rat striatal membranes (tissue homogenate)
Protocol: (§1) Rat tissue homogenates were prepared as described previously. Murphy, R. A., et al., J. Med. Chem. 33, 171-178 (1990). The binding assays were performed by incubating 50 μL of tissue preparations containing 40-60 μg of protein with appropriate amounts of ^125 I-labeled ligand and competitors in a total volume of 0.2 mL of the assay buffer. After an incubation period of 15 min at 37° C. (with stirring), the samples were rapidly filtered in a cell harvester (Brandel M-24R) under vacuum through Whatman GF/B glass-fiber filters pretreated with […] protamine base and washed with 3×5 mL of cold (4° C.) 50 mM Tris-HCI buffer, pH 7.4. The nonspecific binding was obtained in the presence of 10 μM (+)butaclamol. The filters were counted in a γ counter (Beckman 5500) at an efficiency of 70%. Both Scatchard and competition experiments were analyzed with the iterative nonlinear least squares curve-fitting program LIGAND.

[2] = target: T1, dopamine D2 receptor (Rat Striatal Membranes); experiment: Competition for ^125 I-FIDA-1 binding to rat striatal membranes
Protocol: as §1

[3] = In vivo biodistribution in rats (organ uptake); design: species or system rat; details: iv; for liver uptake (in words): first 30 min
Protocol: Male Sprague-Dawley rats (225-300 g), which were allowed free access to food and water, were used for the vivo biodistribution study. […] The organs of interest were removed and weighed and the radioactivity was counted with a Beckman gamma automatic counter (Model 4000). The percent dose per organ was calculated by a comparison of the tissue counts to suitably diluted aliquots of the injected material. Total activities of blood and muscle were calculated under the assumption that they were 7% and 40% of the total body weight, respectively.

[4] = system: dopamine receptors (striatum); experiment: Regional brain distribution in rats (uptake ratio of region to cerebellum); format: in vivo, rat; details: iv
Protocol: Male Sprague-Dawley rats (225-300 g), which were allowed free access to food and water, were used for the vivo biodistribution study. While under halothane anesthesia, 0.2 mL of a saline solution containing [^125 I]FIDA 8 or 10 (8-10 μCi) was injected […] into the femoral vein of rats, and they were sacrificed at various time points postinjection by cardiac excision under halothane anesthesia. The organs of interest were removed and weighed and the radioactivity was counted with a Beckman gamma automatic counter (Model 4000). The percent dose per organ was calculated by a comparison of the tissue counts to suitably diluted aliquots of the injected material. Total activities of blood and muscle were calculated under the assumption that they were 7% and 40% of the total body weight, respectively.
Regional brain distribution in rats was obtained after an injection of [^125 I]FIDA 8 or 10. By dissecting, weighing, and counting samples from different brain regions (cortex, striatum, hippocampus, and cerebellum), the percent dose/gram of sample was calculated by comparing the sample counts with the count of the diluted initial dose. The uptake ratio of each region was obtained by dividing the percent dose/gram of each region by that to the cerebellum.

[5] = rat striatal membranes, 15 min at 37° C., nonspecific binding with 10 μM (+)butaclamol, read-out: Ki, inhibition constant on ^125 I-FIDA-2 binding

T1 sequence (P61169 whole entry): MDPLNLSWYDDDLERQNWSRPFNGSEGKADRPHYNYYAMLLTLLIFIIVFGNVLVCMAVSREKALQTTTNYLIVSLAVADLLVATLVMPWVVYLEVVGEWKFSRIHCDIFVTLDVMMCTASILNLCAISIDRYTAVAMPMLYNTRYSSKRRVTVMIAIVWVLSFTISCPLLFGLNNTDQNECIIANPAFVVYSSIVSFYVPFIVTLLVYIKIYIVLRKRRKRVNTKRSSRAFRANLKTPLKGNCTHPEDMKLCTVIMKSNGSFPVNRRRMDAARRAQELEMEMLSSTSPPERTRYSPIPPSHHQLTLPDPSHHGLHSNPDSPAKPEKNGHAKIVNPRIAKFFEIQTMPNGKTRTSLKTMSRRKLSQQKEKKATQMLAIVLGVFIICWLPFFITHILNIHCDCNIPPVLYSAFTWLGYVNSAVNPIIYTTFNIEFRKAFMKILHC

For CCN1CCC[C@H]1CNC(=O)c1cc(I)cc(OC)c1OC [Epidepride], the Kd (Dopamine D-2 Receptors) is listed as 0.024 nM.
In the case of COc1cc(I)cc(C(=O)NC[C@H]2CCCN2Cc2ccc(F)cc2)c1OC [FIDA2, R(+)-2,3-dimethoxy-N-[(1-(4' -fluorobenzyl)-2-pyrrolidinyl)methyl]-5-iodobenzamide], the “binding specificity and selectivity (FIDA2 radioligand)” value ([1]; competition study with various types of receptor ligands) is reported as “specifically binds to the dopamine D2 receptor with great selectivity”.
For CCN1CCC[C@H]1CNC(=O)c1cc(CCCF)cc(OC)c1OC [Fluoropropyl-Epidepride], the Kd (Dopamine D-2 Receptors) is given as 0.03 nM.
For CCN1CCC[C@H]1CNC(=O)c1cc(I)cc2c1OCC2 [IBF], the Kd (Dopamine D-2 Receptors) is listed as 0.106 nM.
In the case of CCN1CCC[C@H]1CNC(=O)c1c(OC)ccc(I)c1O [IBZM], the Kd (Dopamine D-2 Receptors) is listed as 0.426 nM.
In the case of CCN1CCC[C@H]1CNC(=O)c1c(O)c(I)cc(OC)c1OC [Ioxipride], the Kd (Dopamine D-2 Receptors) is listed as 0.019 nM.
For CCN1CCC[C@H]1CNC(=O)c1c(O)c(Cl)cc(Cl)c1OC [Raclopride], the Kd (Dopamine D-2 Receptors) is listed as 10 nM.
Molecule COc1cccc(OC)c1OCCNCC1COc2ccccc2O1 (stereo not drawn) [WB 4101] has a Ki [1, 5] of 23.3 ± 2.2 nM and a Ki ([2]; rat striatal membranes, 15 min at 37° C., nonspecific binding with 10 μM (+)butaclamol, read-out: Ki, inhibition constant on ^125 I-FIDA-1 binding) of 33.1 ± 1.5 nM.
For CCN1CCC[C@H]1CNC(=O)c1cc([123I])cc(OC)c1OCCF [[^123 I]FIDA1], the “brain uptake (in words)” value [3] was “moderate brain uptake”, the “liver clearance (in words)” value [3] was “rapidly washed out at 1 h postinjection” and the “brain washout (in words)” value ([3]; 1 h after injection) was “a large portion of the radioactivity has washed out from the brain; also recorded: the radioactivity had washed out from the brain”. The “liver uptake (in words)” value [3] was “remained high for the first 30 min”, the “increase in target to nontarget ratio vs. time, hippocampus and cortex” value [4] was “not observed” and the “retention in striatum (in words)” value [4] was “prolonged retention”. The “striatum/cerebellum (ST/CB) ratio” value ([4]; 30 min) was 8.26, the “striatum/cerebellum (ST/CB) ratio” value ([4]; 60 min) was 29.3 and the “striatum/cerebellum (ST/CB) ratio” value ([4]; printed 10 min) was 60.7.
For COc1cc([123I])cc(C(=O)NC[C@H]2CCCN2Cc2ccc(F)cc2)c1OC [[^123 I]FIDA2], the “brain uptake (in words)” value [3] was “better brain uptake in rats than [^123 I]FIDA1; also recorded: higher brain uptake than [^123 I]FIDA1”, the “liver clearance (in words)” value [3] was “slower than it was for [^123 I]FIDA1” and the “liver uptake (in words)” value [3] was “High initial uptake in the liver”. For the same molecule, the brain uptake ([3]; time not stated) was 0.98 % dose/organ, the ST/CB ratio ([4]; 2 min) was 1.2 and the ST/CB ratio ([4]; 120 min) was 25.2.
In the case of CN1[C@@H]2CC[C@H]1C[C@@H](OC(=O)C(CO)c1ccccc1)C2 (stereo partly drawn) [atropine], the Ki [1] is reported as greater than 10000 nM and the Ki [2] is reported as greater than 10000 nM.
With COC(=O)[C@@H]1[C@H]2C[C@H]3c4[nH]c5ccccc5c4CCN3C[C@@H]2CC[C@@H]1O [yohimbine] the Ki [1, 5] was 505 ± 70 nM.

— patent publication US5446147A (Trustees of the University of Pennsylvania, priority 1992, dated 1995)
